28 compounds from ChEMBL document CHEMBL5096241, “Discovery of 3-Aminopyrazole Derivatives as New Potent and Orally Bioavailable AXL Inhibitors” (J Med Chem, 2022) can be followed below.

pIC50: −log10 of the molar value. A value given as a limit tells only on which side of the number the result lay.

Broadly, the pIC50 is the negative decadic logarithm of the IC50, by convention in mol/L.

For assay [1], the target named is T1, Tyrosine-protein kinase receptor UFO (Homo sapiens, UniProt P30530).
T1 sequence (P30530 whole entry): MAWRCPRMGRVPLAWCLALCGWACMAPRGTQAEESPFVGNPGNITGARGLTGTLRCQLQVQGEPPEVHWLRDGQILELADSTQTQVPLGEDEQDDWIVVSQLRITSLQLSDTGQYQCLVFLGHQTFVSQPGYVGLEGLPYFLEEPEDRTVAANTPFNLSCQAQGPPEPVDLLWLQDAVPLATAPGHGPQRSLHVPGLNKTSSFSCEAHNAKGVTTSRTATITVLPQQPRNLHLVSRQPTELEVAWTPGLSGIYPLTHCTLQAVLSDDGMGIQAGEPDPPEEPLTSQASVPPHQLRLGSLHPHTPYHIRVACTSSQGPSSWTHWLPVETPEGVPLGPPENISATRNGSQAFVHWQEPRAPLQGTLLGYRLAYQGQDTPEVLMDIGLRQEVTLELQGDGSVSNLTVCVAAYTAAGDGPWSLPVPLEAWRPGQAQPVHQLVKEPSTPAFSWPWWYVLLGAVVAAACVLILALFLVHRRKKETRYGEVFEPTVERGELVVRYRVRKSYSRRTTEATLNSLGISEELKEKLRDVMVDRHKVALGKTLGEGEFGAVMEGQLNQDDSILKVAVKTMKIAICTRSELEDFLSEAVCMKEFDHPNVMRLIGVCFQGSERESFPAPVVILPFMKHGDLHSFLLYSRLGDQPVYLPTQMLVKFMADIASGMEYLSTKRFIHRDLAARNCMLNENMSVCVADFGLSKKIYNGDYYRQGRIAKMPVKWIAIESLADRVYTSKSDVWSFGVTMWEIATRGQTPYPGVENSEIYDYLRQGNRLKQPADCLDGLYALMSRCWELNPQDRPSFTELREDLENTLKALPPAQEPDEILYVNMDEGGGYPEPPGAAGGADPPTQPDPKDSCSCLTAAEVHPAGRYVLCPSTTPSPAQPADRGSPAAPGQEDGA
The assay is described as follows: Inhibition of recombinant AXL (unknown origin) using poly (Glu,Tyr) 4:1 as substrate incubated for 60 mins in presence of ATP by ELISA. Background: In an ELISA, binding on a coated surface is turned into a signal by an enzyme label.

The test system of another assay is BaF3. The assay is described as follows: Antiproliferative activity against mouse BaF3 cells transfected with TEL-AXL assessed as inhibition of cell growth incubated for 72 hrs. It is filed as functional, cell-based. Particulars: BaF3, 72 h.

Turning to `COc1cc2nccc(Oc3ccc(Nc4nn(C)cc4C(=O)Nc4ccc(C(C)C)cc4)cc3F)c2cc1OC`, the pIC50 in assay [1] is < 6.00. For the compound `COc1cc2nccc(Oc3ccc(Nc4nn(C)cc4C(=O)Nc4ccc(F)cc4)cc3F)c2cc1OC`, the negative-log IC50 (pIC50) in assay [1] is 7.40. Turning to `COc1cc2nccc(Oc3ccc(Nc4nn(C)cc4C(=O)NC4C5CC6CC(C5)CC4C6)cc3F)c2cc1OC` (stereo not given), in assay [1], the pIC50 was 7.88. On the same count and under the same terms, the same measure for `CNC(=O)c1cn(C)nc1Nc1ccc(Oc2ccnc3cc(OC)c(OC)cc23)c(F)c1`: < 6.00; for `COc1cc2nccc(Oc3ccc(Nc4nn(C)cc4C(=O)NC4CC4)cc3F)c2cc1OC`: 6.23; for `COc1cc2nccc(Oc3ccc(Nc4nn(C)cc4C(=O)NC4CCCCC4)cc3)c2cc1OC`: 7.46. Consider `COc1cc2nccc(Oc3ccc(Nc4nn(C)cc4C(=O)NC4CCOCC4)cc3F)c2cc1OC`, for which the negative logarithm of the IC50 (pIC50) in assay [1] is 6.92. On to `COCCCOc1cc2nccc(Oc3ccc(Nc4nn(C)cc4C(=O)NC4CCCCC4)cc3F)c2cc1OC`, for which the pIC50 in assay [1] was 8.07. In the case of `COCCOc1cc2nccc(Oc3ccc(Nc4nn(C)cc4C(=O)NC4CCCCC4)cc3F)c2cc1OC`, the pIC50 in assay [1] is 8.11. `COc1cc2nccc(Oc3ccc(Nc4nn(C)cc4C(=O)Nc4ccc(C)cc4)cc3F)c2cc1OC`: the pIC50 in assay [1] is 7.64. On the same count and under the same terms, the same measure for `COc1ccc(NC(=O)c2cn(C)nc2Nc2ccc(Oc3ccnc4cc(OC)c(OC)cc34)c(F)c2)cc1`: 7.06; for `COc1cc2nccc(Oc3ccc(Nc4nn(C)cc4C(=O)NC4CCCCC4)cc3F)c2cc1OC`: 7.94; for `CCNC(=O)c1cn(C)nc1Nc1ccc(Oc2ccnc3cc(OC)c(OC)cc23)c(F)c1`: 6.62.

As for `COc1cc2nccc(Oc3ccc(Nc4nn(C)cc4C(=O)Nc4cccc(F)c4)cc3F)c2cc1OC`, the pIC50 in assay [1] was 6.58. `COc1cc2c(Oc3ccc(Nc4nn(C)cc4C(=O)NC4CCCCC4)cc3F)ccnc2cc1OCCCN1CCN(C)CC1`: the pIC50 in assay [1] was 8.54; with BaF3, 8.05. For `COc1cc2nccc(Oc3ccc(Nc4nn(C)cc4C(=O)NC4CCCCC4)cc3C)c2cc1OC`, the pIC50 in assay [1] was 7.39.

`COc1cc2nccc(Oc3ccc(Nc4nn(C)cc4C(=O)Nc4ccc(OC(F)F)cc4)cc3F)c2cc1OC`: in assay [1], the pIC50 was 7.19.

As for `COc1cc2c(Oc3ccc(Nc4nn(C)cc4C(=O)NC4CCCCC4)cc3F)ccnc2cc1OCCCN(C)C`, the values for the pIC50 (in assay [1]; in the assay with BaF3) were 8.49 and 7.94, respectively. Take `COc1cc2nccc(Oc3ccc(Nc4nn(C)cc4C(=O)NC(C)(C)C)cc3F)c2cc1OC`: in assay [1], the pIC50 was 6.85. In the case of `Nc1nc(Nc2ccc3c(c2)CCC(N2CCCC2)CC3)nn1-c1cc2c(nn1)-c1ccccc1CCC2` (single isomer, unassigned) [BEMCENTINIB], the negative logarithm of the IC50 (pIC50) in the assay on BaF3 is 7.01.

On to `COc1cc2nccc(Oc3ccc(Nc4nn(C)cc4C(=O)Nc4ccc(OC(F)(F)F)cc4)cc3F)c2cc1OC`, for which the pIC50 in assay [1] is < 6.00. With `COc1cc2nccc(Oc3ccc(Nc4nn(C)cc4C(=O)NC4CCCCC4)cc3OC)c2cc1OC`, the pIC50 in assay [1] was 7.39. Turning to `COc1cc2nccc(Oc3ccc(Nc4nn(C)cc4C(=O)NC4CCCC4)cc3F)c2cc1OC`, in assay [1], the pIC50 was 7.56. In the case of `COc1cc2c(Oc3ccc(Nc4nn(C)cc4C(=O)NC4CCCCC4)cc3F)ccnc2cc1OCCCN1CCCCC1`, the pIC50 in assay [1] is 8.25. `COc1cc2nccc(Oc3ccc(Nc4nn(C)cc4C(=O)NC4CCC(F)(F)CC4)cc3F)c2cc1OC`: the pIC50 in assay [1] was 7.19.

Regarding `COc1cc2nccc(Oc3ccc(Nc4nn(C)cc4C(=O)Nc4ccccc4)cc3F)c2cc1OC`, the pIC50 in assay [1] was 7.60.

With `COc1cc2nccc(Oc3ccc(Nc4nn(C)cc4C(=O)NC4CCCCCCC4)cc3F)c2cc1OC`, the pIC50 in assay [1] was 7.90. Regarding `COc1cc2nccc(Oc3ccc(Nc4nn(C)cc4C(=O)N4CCCCC4)cc3F)c2cc1OC`, the negative-log IC50 (pIC50) in assay [1] is < 6.00.
